This series in a line: clinical. To be noted: human, in vivo, po.

Results on one compound are retold here after ChEMBL document CHEMBL3832060, “DailyMed|setid=39945812-f776-4b13-8199-e846e37aa101 | TRAMADOL HYDROCHLORIDE AND ACETAMINOPHEN - tramadol hydrochloride and acetaminophen tablet, film coated|Cadila Healthcare Limited”.

SMILES strings stand for the structures.

Description: Evalaution of pharmacokinetic parameters of Acetaminophen following single oral co-administration of 325 mg Acetaminophen tablets with 37.5 mg Tramadol.

Usually Cmax stands for the maximum level reached in the sampled fluid or tissue. A word on the Tmax: it is the time from dosing to the highest level. As a reminder, the half-life is the time needed for the level to fall by half in the phase considered. Consider `CC(=O)Nc1ccc(O)cc1` [ACETAMINOPHEN], for which the Cmax stood at 4200 ng/mL, the Tmax was 0.9 h and the half-life was 2.5 h.
